Test results: ChEMBL document CHEMBL5625204, “Synthesis and pharmacodynamic evaluation of naphthalene derivatives against influenza A virus in vitro and in vivo” (Eur J Med Chem, 2023)
Activity calls are given as the source filed them. The calls are words filed in the database; no cut-off is given here.

Tests used:
Influenza A virus [1] = assay: Inhibition of Influenza A virus replication infected in dog MDCK cells assessed as downregulation of virus NP gene expression at 25 to 50 uM measured after 24 to 72 hrs post-infection by qRT-PCR analysis; assay type: functional, organism-based; conditions: dose 25-50 µM
Influenza A virus [2] = assay: Antiviral activity against Influenza A virus H1N1 (A/Weiss/43) infected in MDCK cells assessed as reduction of viral replication treated for 2 hrs before viral infection and measured after 72 hrs by TCID50 method; assay type: functional, organism-based
[3] = Toxicity in BALB/c mouse infected with Influenza A virus H1N1 (A/Weiss/43) assessed as liver pathological changes at 25 to 100 mg/kg/day administered intranasally for 6 days starting from 3 hrs post-viral infection by Hematoxylin-Eosin staining based analysis; assay type: organism-based; conditions: in vivo, inhaled_or_intranasal, 144 h, dose 25-100 mg/kg/day, time 6 day
Influenza A virus [4] = assay: Antiviral activity against Influenza A virus H1N1 (A/Weiss/43)-infected in BALB/c mouse assessed as reduction in viral M mRNA expression in lungs at 25 to 100 mg/kg/day administered intranasally for 2 to 6 days starting from 3 hrs post-viral infection by qRT-PCR analysis; assay type: functional, organism-based; conditions: dose 25-100 mg/kg/day, route nas, time 2-6 day
Influenza A virus [5] = assay: Antiviral activity against Influenza A virus H1N1 (A/Weiss/43)-infected in BALB/c mouse assessed as reduction in viral NP mRNA expression in lungs at 25 to 100 mg/kg/day administered intranasally for 2 to 6 days starting from 3 hrs post-viral infection by qRT-PCR analysis; assay type: functional, organism-based; conditions: dose 25-100 mg/kg/day, route nas, time 2-6 day
Influenza A virus [6] = assay: Antiviral activity against Influenza A virus H1N1 (A/Weiss/43) infected in MDCK cells assessed as reduction in cell pathological changes at 25 to 50 uM by microscopic analysis; assay type: functional, organism-based; conditions: dose 25-50 µM
Influenza A virus [7] = assay: Antiviral activity against Influenza A virus H1N1 (A/Weiss/43)-infected in BALB/c mouse assessed as reduction in pulmonary inflammation at 25 to 100 mg/kg/day administered intranasally for 6 days starting from 3 hrs post-viral infection by Hematoxylin-Eosin staining based analysis; assay type: functional, organism-based; conditions: dose 25-100 mg/kg/day, route nas, time 6.0 day
Influenza A virus [8] = assay: Antiviral activity against Influenza A virus H3N2 (A/California/2004) infected in MDCK cells assessed as reduction of viral replication incubated for 72 hrs by TCID50 method; assay type: functional, organism-based
[9] = Selectivity index, ratio of CC50 for dog MDCK cells to EC50 for antiviral activity against Influenza A virus H3N2 (A/California/2004) infected in MDCK cells; assay type: toxicity, cell-based; conditions: read-out: Ratio CC50/EC50
[10] = Toxicity in dog MDCK cells assessed as ROS production by measuring proportion of cells with excessive ROS accumulation at 50 uM measured after 36 hrs by DCFH-DA staining based flow cytometry (reference value: 0.094%); assay type: cell-based, Canis lupus familiaris
Influenza A virus [11] = assay: Antiviral activity against Influenza A virus H1N1 infected in dog MDCK cells assessed as decrease in apoptosis by measuring proportion of early apoptotic cells at 25 uM measured after 72 hrs by AnnexinV-FITC/PI staining based flow cytometry (reference value: 24.3%); assay type: functional; set-up: scale not given: the % may be the effect or the level left
Influenza A virus [12] = assay: Antiviral activity against Influenza A virus H1N1 infected in dog MDCK cells assessed as decrease in apoptosis by measuring proportion of early apoptotic cells at 50 uM measured after 72 hrs by AnnexinV-FITC/PI staining based flow cytometry (reference value: 24.3%); assay type: functional; set-up: scale not given: the % may be the effect or the level left
Influenza A virus [13] = assay: Antiviral activity against Influenza A virus H1N1 infected in dog MDCK cells assessed as decrease in apoptosis by measuring proportion of necrotic cells at 50 uM measured after 72 hrs by AnnexinV-FITC/PI staining based flow cytometry (reference value: 2.47%); assay type: functional; set-up: scale not given: the % may be the effect or the level left
[14] = Toxicity in dog MDCK cells assessed as proportion of viable cells at 50 uM measured after 72 hrs by AnnexinV-FITC/PI staining based flow cytometry (reference value: 90.6%); assay type: cell-based, Canis lupus familiaris; conditions: read-out: Activity
[15] = Toxicity in dog MDCK cells assessed as proportion of early apoptotic cells at 50 uM measured after 72 hrs by AnnexinV-FITC/PI staining based flow cytometry (reference value: 4.51%); assay type: cell-based, Canis lupus familiaris
[16] = Toxicity in dog MDCK cells assessed as proportion of late apoptotic cells at 50 uM measured after 72 hrs by AnnexinV-FITC/PI staining based flow cytometry (reference value: 3.45%); assay type: cell-based, Canis lupus familiaris
Influenza A virus [17] = assay: Antiviral activity against Influenza A virus H1N1 infected in human A549 cells assessed as decrease in apoptosis by measuring decrease in cleaved PARP protein expression at 25 to 50 uM measured after 24 hrs by western blot analysis; assay type: functional, organism-based; conditions: dose 25-50 µM
Influenza A virus [18] = assay: Antiviral activity against Influenza A virus H1N1 infected in human A549 cells assessed as decrease in RIG-1 pathway related gene expression by measuring decrease in RIG-1 gene expression at 25 to 50 uM measured after 24 hrs by qRT-PCR analysis; assay type: functional, organism-based; conditions: dose 25-50 µM
Influenza A virus [19] = assay: Antiviral activity against Influenza A virus H1N1 infected in human A549 cells assessed as decrease in RIG-1 pathway related gene expression by measuring decrease in IRF3 gene expression at 25 to 50 uM measured after 24 hrs by qRT-PCR analysis; assay type: functional, organism-based; conditions: dose 25-50 µM
Influenza A virus [20] = assay: Antiviral activity against Influenza A virus H1N1 infected in human A549 cells assessed as decrease in RIG-1 pathway related gene expression by measuring decrease in IRF7 gene expression at 25 to 50 uM measured after 24 hrs by qRT-PCR analysis; assay type: functional, organism-based; conditions: dose 25-50 µM
Influenza A virus [21] = assay: Antiviral activity against Influenza A virus H1N1 infected in human A549 cells assessed as decrease in cytokine gene expression by measuring decrease in IL-6 gene expression at 25 to 50 uM measured after 24 hrs by qRT-PCR analysis; assay type: functional, organism-based; conditions: dose 25-50 µM
Influenza A virus [22] = assay: Antiviral activity against Influenza A virus H1N1 infected in human A549 cells assessed as decrease in cytokine gene expression by measuring decrease in IFN-beta gene expression at 25 to 50 uM measured after 24 hrs by qRT-PCR analysis; assay type: functional, organism-based; conditions: dose 25-50 µM
Influenza A virus [23] = assay: Antiviral activity against Influenza A virus H1N1 (A/Weiss/43)-infected in BALB/c mouse assessed as reduction in TLR-7 gene expression in lungs at 25 to 100 mg/kg/day administered intranasally for 6 days starting from 3 hrs post-viral infection by qRT-PCR analysis; assay type: functional, organism-based; conditions: dose 25-100 mg/kg/day, route nas, time 6.0 day
Influenza A virus [24] = assay: Antiviral activity against Influenza A virus H1N1 (A/Weiss/43)-infected in BALB/c mouse assessed as reduction in IFN-beta gene expression in lungs at 25 to 100 mg/kg/day administered intranasally for 6 days starting from 3 hrs post-viral infection by qRT-PCR analysis; assay type: functional, organism-based; conditions: dose 25-100 mg/kg/day, route nas, time 6.0 day

SMILES: O=[N+]([O-])c1ccc(S(=O)(=O)N(Cc2ccccc2)c2cccc3ccccc23)cc1
- inhibition (Influenza A virus [1]): Active
- EC50 (Influenza A virus [2]): 7.61 µM
- Activity [3]: Non-Toxic
- Activity (Influenza A virus [4]): Active
- Activity (Influenza A virus [5]): Active
- Activity (Influenza A virus [6]): Active
- Activity (Influenza A virus [7]): Dose-Dependent Effect
- EC50 (Influenza A virus [8]): 6.61 µM
- selectivity ratio [9]: > 121
- Activity [10]: 1.36%
- Activity (Influenza A virus [11]): 2.55%
- Activity (Influenza A virus [12]): 2.93%
- Activity (Influenza A virus [13]): 0.6%
- viability at 72 h, 50 µM [14]: 96.9%
- Activity [15]: 1.56%
- Activity [16]: 0.71%
- inhibition (Influenza A virus [17]): Active
- inhibition (Influenza A virus [18]): Active
- inhibition (Influenza A virus [19]): Active
- inhibition (Influenza A virus [20]): Active
- inhibition (Influenza A virus [21]): Active
- inhibition (Influenza A virus [22]): Active
- Activity (Influenza A virus [23]): Active
- Activity (Influenza A virus [24]): Active
